The source of these data is US8071589B2, “Dihydrobenzoindazoles” (N. V. Organon, priority 2009, dated 2011).

The target of this experiment is T1, human FSH receptor (Homo sapiens, UniProt P23945).
T1 sequence (P23945 18-695): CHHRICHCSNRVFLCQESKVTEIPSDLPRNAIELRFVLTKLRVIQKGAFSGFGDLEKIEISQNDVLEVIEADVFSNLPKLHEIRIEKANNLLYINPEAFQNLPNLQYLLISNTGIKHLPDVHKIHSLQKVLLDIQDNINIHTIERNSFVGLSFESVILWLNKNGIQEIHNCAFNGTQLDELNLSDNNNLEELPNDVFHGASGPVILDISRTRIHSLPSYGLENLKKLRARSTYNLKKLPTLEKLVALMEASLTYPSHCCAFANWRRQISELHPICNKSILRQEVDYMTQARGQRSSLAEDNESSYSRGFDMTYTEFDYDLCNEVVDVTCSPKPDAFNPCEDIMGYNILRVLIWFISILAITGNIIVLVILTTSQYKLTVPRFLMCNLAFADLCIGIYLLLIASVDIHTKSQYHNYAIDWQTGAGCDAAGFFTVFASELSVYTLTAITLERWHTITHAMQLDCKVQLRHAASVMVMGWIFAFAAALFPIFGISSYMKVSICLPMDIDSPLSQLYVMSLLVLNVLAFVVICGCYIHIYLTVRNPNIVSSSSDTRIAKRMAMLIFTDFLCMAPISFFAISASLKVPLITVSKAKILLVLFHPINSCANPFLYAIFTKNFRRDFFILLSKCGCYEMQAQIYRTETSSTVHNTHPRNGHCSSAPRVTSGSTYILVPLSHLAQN
Kind of experiment: Agonistic activity at the human FSH receptor expressed in CHO cells (CRE-luciferase reporter). (In general: A reporter such as luciferase makes a cellular process visible.)
From the text: The term EC50 means the concentration of the test compound that elicits half-maximal (50%) stimulation compared to the compound's maximally attainable effect. pEC50 is the negative log of EC50. The values can be determined e.g. in a cell line transfected with a FSH receptor gene and cotransfected with a cAMP responsive element/promoter directing the expression of a reporter gene. For the determination a software program such as MathIQ (version 2.0, ID Business Solutions Limited) can be used.
Agonistic activity of the compounds at the human FSH receptor was determined in Chinese Hamster Ovary (CHO) cells stably transfected with the human FSH receptor and cotransfected with a cAMP responsive element (CRE)/promotor directing the expression of a firefly luciferase reporter gene. […] Cells (7,500 cells/well of a 384 well plate) were incubated in Dulbecco' minimal essential F12 modified medium (Invitrogen), supplemented with 1 μg/ml bovine insulin, 5 μg/ml human apo-transferrin, 80 U/ml penicillin G and 80 μg/ml streptomycin with the test compounds (concentration between 0.0316 nM and 10.0 μM) in duplicate in a humidified atmosphere (95%) at 5-7% CO2 and 37° C. The final concentration of DMSO was 1%. After 4 hours of incubation, plates were allowed to adjust to room temperature for 1 hour. Then, Luclite (PerkinElmer) solution was added to the wells and cells were allowed to lyse for at least 1 hour at room temperature. Subsequently, luciferase activity was measured in a luminescence counter. The signal is expressed as counts per second (cps). The EC50 (concentration of the test compound that elicits half-maximal (50%) luciferase stimulation compared to the compound's maximally attainable effect) and efficacy values (maximal effect of the test compound as percentage of the maximal effect of recombinant human FSH) of the compounds were determined using the software program MathIQ (version 2.0, ID Business Solutions Limited).
Broadly, the EC50 is the concentration needed to bring the measured effect to its halfway point. Low readings indicate greater potency, high ones weaker potency. The compound `COc1cc2c(cc1OC(C)C)-c1c(c(C(=O)N3CCCN(C(=O)C4CCC4)CC3)nn1-c1ccsc1)CC2` [Example 2g, (4-(cyclobutanecarbonyl)-1,4-diazepan-1-yl)(8-isopropoxy-7-methoxy-1-(thiophen-3-yl)-4,5-dihydro-1H-benzo[g]indazol-3-yl)methanone] gave an EC50 of under 100 nM.
Regarding `COc1cc2c(cc1OC(C)C)-c1c(c(C(=O)N(C)C(C)(C)C)nn1-c1ccsc1)CC2` [Example 2h, N-tert-butyl-8-isopropoxy-7-methoxy-N-methyl-1-(thiophen-3-yl)-4,5-dihydro-1H-benzo[g]indazole-3-carboxamide], the EC50 was under 100 nM.
Consider `COc1cc2c(cc1OC(C)C)-c1c(c(C(=O)N3CCCN(C(C)=O)CC3)nn1-c1ccc(F)cc1)CC2` [Example 3c, 1-(4-(1-(4-fluorophenyl)-8-isopropoxy-7-methoxy-4,5-dihydro-1H-benzo[g]indazole-3-carbonyl)-1,4-diazepan-1-yl)ethanone], for which the EC50 was under 100 nM.
To `COc1cc2c(cc1OC(C)C)-c1c(c(C(=O)N3CCCN(C(=O)C4CCC4)CC3)nn1-c1ccc(F)cc1)CC2` [Example 3d, (4-(cyclobutanecarbonyl)-1,4-diazepan-1-yl)(1-(4-fluorophenyl)-8-isopropoxy-7-methoxy-4,5-dihydro-1H-benzo[g]indazol-3-yl)methanone] belongs under 100 nM.
For the compound `COc1cc2c(cc1OC(C)C)-c1c(c(C(=O)N(C)C(C)(C)C)nn1-c1cccs1)CC2` [Example 5b, N-tert-butyl-8-isopropoxy-7-methoxy-N-methyl-1-(thiophen-2-yl)-4,5-dihydro-1H-benzo[g]indazole-3-carboxamide], the EC50 was under 100 nM.
As for `COc1cc2c(cc1-c1cccnc1)-c1c(c(C(=O)N(C)C(C)(C)C)nn1-c1ccccc1Cl)CC2` [Example 11gb, N-tert-butyl-1-(2-chlorophenyl)-7-methoxy-N-methyl-8-(pyridin-3-yl)-4,5-dihydro-1H-benzo[g]indazole-3-carboxamide], the figure is under 100 nM.
